Results: ChEMBL document CHEMBL5215002, “Selective Inhibition of PTP1B by New Anthraquinone Glycosides from Knoxia valerianoides” (J Nat Prod, 2022)
Calls of active or inactive are those of the source. The rule behind the calls is not given here.

Key:
[1] = biological target: T1, Tyrosine-protein phosphatase non-receptor type 1 (Homo sapiens, UniProt P18031); assay: Inhibition of N-terminal His-tagged recombinant human PTP1B expressed in Escherichia coli
T1 sequence (P18031 whole entry): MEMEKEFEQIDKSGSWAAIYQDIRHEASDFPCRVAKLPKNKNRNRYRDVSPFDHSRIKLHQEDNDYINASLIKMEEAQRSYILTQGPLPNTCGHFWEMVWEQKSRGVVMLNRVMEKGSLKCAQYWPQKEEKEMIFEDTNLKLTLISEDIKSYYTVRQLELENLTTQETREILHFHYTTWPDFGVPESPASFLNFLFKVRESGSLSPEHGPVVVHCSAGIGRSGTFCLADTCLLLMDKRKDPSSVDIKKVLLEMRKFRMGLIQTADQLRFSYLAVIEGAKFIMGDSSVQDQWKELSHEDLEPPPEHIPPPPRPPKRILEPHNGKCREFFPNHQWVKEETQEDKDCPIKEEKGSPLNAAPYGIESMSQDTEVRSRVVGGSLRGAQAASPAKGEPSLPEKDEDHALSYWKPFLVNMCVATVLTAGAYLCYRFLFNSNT

[2] = biological target: T2, Tyrosine-protein phosphatase non-receptor type 2 (Homo sapiens, UniProt P17706); assay: Inhibition of recombinant human TCPTP (1 to 314 residues) expressed in baculovirus-insect cells
T2 sequence (P17706 whole entry): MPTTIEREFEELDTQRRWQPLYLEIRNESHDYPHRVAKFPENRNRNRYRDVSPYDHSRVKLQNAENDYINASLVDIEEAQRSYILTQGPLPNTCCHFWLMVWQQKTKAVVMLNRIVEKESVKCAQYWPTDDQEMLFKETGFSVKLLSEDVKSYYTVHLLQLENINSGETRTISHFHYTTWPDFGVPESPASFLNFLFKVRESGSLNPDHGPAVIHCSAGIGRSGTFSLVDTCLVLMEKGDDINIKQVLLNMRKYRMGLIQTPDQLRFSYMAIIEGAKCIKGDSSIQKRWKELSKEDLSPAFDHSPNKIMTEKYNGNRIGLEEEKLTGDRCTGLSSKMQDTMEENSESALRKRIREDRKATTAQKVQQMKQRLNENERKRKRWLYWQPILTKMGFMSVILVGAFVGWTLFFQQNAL

[3] = biological target: T1, Tyrosine-protein phosphatase non-receptor type 1; assay: Mixed type inhibition of N-terminal His-tagged recombinant human PTP1B expressed in Escherichia coli using pNPP as substrate assessed as inhibition constant preincubated for 15 mins followed by substrate addition and measured after 15 mins by Dixon plot analysis
[4] = biological target: T3, Tyrosine-protein phosphatase non-receptor type 1 (Homo sapiens) (UniProt P18031); assay: Mixed type inhibition of N-terminal His-tagged recombinant human PTP1B expressed in Escherichia coli assessed as reduction in Vmax with increase in Km using varying concentrations of pNPP as substrate preincubated for 15 mins followed by substrate addition and measured after 15 mins by Lineweaver-Burk plot analysis; details: time 30.0 min
T3 sequence (whole entry): T1 sequence (P18031 whole entry)

[5] = biological target: T4, Tyrosine-protein phosphatase non-receptor type 2 (Homo sapiens) (UniProt P17706); assay: Inhibition of recombinant human TCPTP (1 to 314 residues) expressed in baculovirus-insect cells at 100 uM relative to control
T4 sequence (whole entry): T2 sequence (P17706 whole entry)

Homo sapiens = species: Homo sapiens; assay: Selectivity index, ratio of IC50 for inhibition of recombinant human TCPTP (1 to 314 residues) expressed in baculovirus infected insect cells to IC50 for inhibition of N-terminal His-tagged recombinant human PTP1B expressed in Escherichia coli

Compound	IC50 [1]	IC50 [2]	Ki [3]	inhibition [4]	inhibition [5]	Ratio IC50 (Homo sapiens)
O=C1c2ccccc2C(=O)c2c1cc(O)c(CO[C@@H]1O[C@H](CO)[C@@H](O)[C@H](O)[C@H]1O)c2O	3.86 µM	> 100 µM	3.02 µM	Active	< 20%	25.9
COc1ccc2c(c1O)C(=O)c1cc(O[C@@H]3O[C@H](CO[C@@H]4OC[C@@H](O)[C@H](O)[C@H]4O)[C@@H](O)[C@H](O)[C@H]3O)c(CO)c(O)c1C2=O	3.52 µM					
Cc1c(O[C@@H]2O[C@H](CO[C@@H]3OC[C@@H](O)[C@H](O)[C@H]3O)[C@@H](O)[C@H](O)[C@H]2O)cc2c(c1O)C(=O)c1ccc(O)c(O)c1C2=O	1.05 µM	78 µM	1.21 µM	Active		74.3
COc1ccc2c(c1)C(=O)c1cc(O[C@@H]3O[C@H](CO[C@@H]4OC[C@@H](O)[C@H](O)[C@H]4O)[C@@H](O)[C@H](O)[C@H]3O)c(C)c(O)c1C2=O	9.04 µM					
SODIUM ORTHOVANAD						0.67
COc1ccc2c(c1)C(=O)c1cc(O[C@@H]3O[C@H](CO[C@@H]4OC[C@@H](O)[C@H](O)[C@H]4O)[C@@H](O)[C@H](O)[C@H]3O)c(CO)c(O)c1C2=O	11.3 µM	> 100 µM			< 20%	8.9
COc1ccc2c(c1O)C(=O)c1cc(O[C@@H]3O[C@H](CO)[C@@H](O)[C@H](O)[C@H]3O)c(CO)c(O)c1C2=O	3.05 µM					
COc1ccc2c(c1O)C(=O)c1cc(O[C@@H]3O[C@H](CO[C@@H]4OC[C@@H](O)[C@H](O)[C@H]4O)[C@@H](O)[C@H](O)[C@H]3O)c(C)c(O)c1C2=O	7.28 µM	> 100 µM			40%	13.7
O=C1c2ccccc2C(=O)c2c1cc(O[C@@H]1O[C@H](CO)[C@@H](O)[C@H](O)[C@H]1O)c(CO)c2O	10.8 µM					
Cc1c(O[C@@H]2O[C@H](CO[C@@H]3OC[C@@H](O)[C@H](O)[C@H]3O)[C@@H](O)[C@H](O)[C@H]2O)cc2c(c1O)C(=O)c1ccccc1C2=O	13.7 µM					
COc1ccc2c(c1)C(=O)c1cc(O[C@@H]3O[C@H](CO)[C@@H](O)[C@H](O)[C@H]3O)c(CO)c(O)c1C2=O	1.56 µM	> 100 µM			< 20%	64.1
COc1ccc2c(c1)C(=O)c1cc(O)c(CO[C@@H]3O[C@H](CO[C@@H]4OC[C@@H](O)[C@H](O)[C@H]4O)[C@@H](O)[C@H](O)[C@H]3O)c(O)c1C2=O	7.52 µM					
